# Measurements reported in US20260262643A1, “HERBICIDAL BENZOXAZINES” (FMC CORPORATION, priority 2022, published 2026).
# Key:
# sedge, umbrella = assay: Test D flooded paddy test; format: in vivo, Cyperus difformis; conditions: 250 g ai/ha, applied to paddy water, visual rating after 13 to 14 days, scale 0 to 100 (0 no effect, 100 complete control)
# Outline: (§1)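 Rating scale 0–100 (0 no effect, 100 complete control), visual, versus controls. Readout at 13–14 days after in-water application to 2-leaf plants in pots flooded 3 cm deep.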
# blackgrass [1] = assay: Test C postemergence; format: in vivo, Alopecurus myosuroides; conditions: 10 days, 0 to 100 scale (0 no effect, 100 complete control)
# Outline: (§2)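 Visual injury ratings on a 0–100 scale (100 = complete control) were made against untreated controls 10 days after treatment in the greenhouse. Compounds, formulated with surfactant in non-phytotoxic solvent, were sprayed on soil preemergence or onto one- to two-leaf plants 2–10 cm tall postemergence.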
# corn [2] = assay: Test C postemergence; format: in vivo, Zea mays; conditions: 10 days, 0 to 100 scale (0 no effect, 100 complete control)
# Outline: as §2
# horseweed = assay: Test C postemergence; format: in vivo, Erigeron canadensis; conditions: 10 days, 0 to 100 scale (0 no effect, 100 complete control)
# Outline: as §2
# kochia [3] = assay: Test C postemergence; format: in vivo, Bassia scoparia; conditions: 10 days, 0 to 100 scale (0 no effect, 100 complete control)
# Outline: as §2
# green foxtail [4] = assay: Test C preemergence; format: in vivo, Setaria viridis
# Outline: as §2
# ragweed [5] = assay: Test C postemergence; format: in vivo, Ambrosia artemisiifolia; conditions: 10 days, 0 to 100 scale (0 no effect, 100 complete control)
# Outline: as §2
# barnyardgrass [6] = assay: Test D flooded paddy test; format: in vivo, Echinochloa crus-galli; conditions: 250 g ai/ha, applied to paddy water, visual rating after 13 to 14 days, scale 0 to 100 (0 no effect, 100 complete control)
# Outline: as §1
# soybean [7] = assay: Test C postemergence; format: in vivo, Glycine max; conditions: 10 days, 0 to 100 scale (0 no effect, 100 complete control)
# Outline: as §2
# galium = assay: Test C postemergence; format: in vivo, Galium aparine; conditions: 10 days, 0 to 100 scale (0 no effect, 100 complete control)
# Outline: as §2
# oat, wild [8] = assay: Test C postemergence; format: in vivo, Avena fatua; conditions: 10 days, 0 to 100 scale (0 no effect, 100 complete control)
# Outline: as §2
# ragweed [9] = assay: Test C preemergence; format: in vivo, Ambrosia artemisiifolia
# Outline: as §2
# barnyardgrass [10] = assay: Test C postemergence; format: in vivo, Echinochloa crusgalli; conditions: 10 days, 0 to 100 scale (0 no effect, 100 complete control)
# Outline: as §2
# soybean [11] = assay: Test C preemergence; format: in vivo, Glycine max
# Outline: as §2
# wheat [12] = assay: Test C preemergence; format: in vivo, Triticum aestivum
# Outline: as §2
# barnyardgrass [13] = assay: Test C preemergence; format: in vivo, Echinochloa crusgalli
# Outline: as §2
# green foxtail [14] = assay: Test C postemergence; format: in vivo, Setaria viridis; conditions: 10 days, 0 to 100 scale (0 no effect, 100 complete control)
# Outline: as §2
# ryegrass, Italian [15] = assay: Test C preemergence; format: in vivo, Lolium multiflorum
# Outline: as §2
# kochia [16] = assay: Test C preemergence; format: in vivo, Bassia scoparia
# Outline: as §2
# oat, wild [17] = assay: Test C preemergence; format: in vivo, Avena fatua
# Outline: as §2
# pigweed, palmer [18] = assay: Test C preemergence; format: in vivo, Amaranthus palmeri
# Outline: as §2
# pigweed, palmer [19] = assay: Test C postemergence; format: in vivo, Amaranthus palmeri; conditions: 10 days, 0 to 100 scale (0 no effect, 100 complete control)
# Outline: as §2
# wheat [20] = assay: Test C postemergence; format: in vivo, Triticum aestivum; conditions: 10 days, 0 to 100 scale (0 no effect, 100 complete control)
# Outline: as §2
# corn [21] = assay: Test C preemergence; format: in vivo, Zea mays
# Outline: as §2
# ducksalad = assay: Test D flooded paddy test; format: in vivo, Heteranthera limosa; conditions: 250 g ai/ha, applied to paddy water, visual rating after 13 to 14 days, scale 0 to 100 (0 no effect, 100 complete control)
# Outline: as §1
# rice = assay: Test D flooded paddy test; format: in vivo, Oryza sativa; conditions: 250 g ai/ha, applied to paddy water, visual rating after 13 to 14 days, scale 0 to 100 (0 no effect, 100 complete control)
# Outline: as §1
# blackgrass [22] = assay: Test C preemergence; format: in vivo, Alopecurus myosuroides
# Outline: as §2
# ryegrass, Italian [23] = assay: Test C postemergence; format: in vivo, Lolium multiflorum; conditions: 10 days, 0 to 100 scale (0 no effect, 100 complete control)
# Outline: as §2
# [24] = 500 g ai/ha, preemergence, 0 to 100 scale (0 no effect, 100 complete control)
# [25] = Preemergence, 125 g ai/ha, 0 to 100 scale, 0 no effect, 100 complete control
compound,measurement,setting,value
Cc1ncn(-c2ccc(F)c(C(=O)N3C[C@H](C)Oc4c(C)cccc43)c2)n1 [Compound 361],"Plant response rating, Sedge, Umbrella (Flood)","sedge, umbrella",95
same,"Plant response rating, Blackgrass","blackgrass [1]; 500 g ai/ha, postemergence",90
same,"Plant response rating, Blackgrass","blackgrass [1]; Postemergence, 125 g ai/ha",80
same,"Plant response rating, Corn","corn [2]; 500 g ai/ha, postemergence",50
same,"Plant response rating, Corn","corn [2]; Postemergence, 125 g ai/ha",20
same,"Plant response rating, Horseweed","horseweed; 500 g ai/ha, postemergence",10
same,"Plant response rating, Horseweed","horseweed; Postemergence, 125 g ai/ha",0
same,"Plant response rating, Kochia","kochia [3]; 500 g ai/ha, postemergence",80
same,"Plant response rating, Kochia","kochia [3]; Postemergence, 125 g ai/ha",70
same,"Foxtail, Green plant response rating",green foxtail [4]; [24],100
same,"Plant response rating, Foxtail, Green",green foxtail [4]; [25],100
same,"Plant response rating, Ragweed","ragweed [5]; 500 g ai/ha, postemergence",60
same,"Plant response rating, Ragweed","ragweed [5]; Postemergence, 125 g ai/ha",60
same,"Plant response rating, Barnyardgrass (Flood)",barnyardgrass [6],30
same,"Plant response rating, Soybean","soybean [7]; 500 g ai/ha, postemergence",100
same,"Plant response rating, Soybean","soybean [7]; Postemergence, 125 g ai/ha",100
same,"Plant response rating, Galium","galium; 500 g ai/ha, postemergence",100
same,"Plant response rating, Galium","galium; Postemergence, 125 g ai/ha",100
same,"Plant response rating, Oat, Wild","oat, wild [8]; 500 g ai/ha, postemergence",80
same,"Plant response rating, Oat, Wild","oat, wild [8]; Postemergence, 125 g ai/ha",30
same,Ragweed plant response rating,ragweed [9]; [24],70
same,"Plant response rating, Ragweed",ragweed [9]; [25],50
same,"Plant response rating, Barnyardgrass","barnyardgrass [10]; 500 g ai/ha, postemergence",90
same,"Plant response rating, Barnyardgrass","barnyardgrass [10]; Postemergence, 125 g ai/ha",70
same,Soybean plant response rating,soybean [11]; [24],100
same,"Plant response rating, Soybean",soybean [11]; [25],100
same,Wheat plant response rating,wheat [12]; [24],70
same,"Plant response rating, Wheat",wheat [12]; [25],50
same,Barnyardgrass plant response rating,barnyardgrass [13]; [24],90
same,"Plant response rating, Barnyardgrass",barnyardgrass [13]; [25],80
same,"Plant response rating, Foxtail, Green","green foxtail [14]; 500 g ai/ha, postemergence",90
same,"Plant response rating, Foxtail, Green","green foxtail [14]; Postemergence, 125 g ai/ha",90
same,"Ryegrass, Italian plant response rating","ryegrass, Italian [15]; [24]",80
same,"Plant response rating, Ryegrass, Italian","ryegrass, Italian [15]; [25]",80
same,Kochia plant response rating,kochia [16]; [24],90
same,"Plant response rating, Kochia",kochia [16]; [25],80
same,"Oat, Wild plant response rating","oat, wild [17]; [24]",50
same,"Plant response rating, Oat, Wild","oat, wild [17]; [25]",0
same,"Pigweed, Palmer plant response rating","pigweed, palmer [18]; [24]",100
same,"Plant response rating, Pigweed, Palmer","pigweed, palmer [18]; [25]",90
same,"Plant response rating, Pigweed, Palmer","pigweed, palmer [19]; 500 g ai/ha, postemergence",60
same,"Plant response rating, Pigweed, Palmer","pigweed, palmer [19]; Postemergence, 125 g ai/ha",20
same,"Plant response rating, Wheat","wheat [20]; 500 g ai/ha, postemergence",80
same,"Plant response rating, Wheat","wheat [20]; Postemergence, 125 g ai/ha",40
same,Corn plant response rating,corn [21]; [24],10
same,"Plant response rating, Corn",corn [21]; [25],0
same,"Plant response rating, Ducksalad (Flood)",ducksalad,70
same,"Plant response rating, Rice (Flood)",rice,15
same,Blackgrass plant response rating,blackgrass [22]; [24],60
same,"Plant response rating, Blackgrass",blackgrass [22]; [25],40
same,"Plant response rating, Ryegrass, Italian","ryegrass, Italian [23]; 500 g ai/ha, postemergence",90
same,"Plant response rating, Ryegrass, Italian","ryegrass, Italian [23]; Postemergence, 125 g ai/ha",80
